Results taken from US20230172867A1, “A METHOD FOR TREATING CANCER WITH AN ORAL DOSAGE FORM OF AN FGFR4 INHIBITOR” (Eisai R&D Management Co., Ltd., priority 2020, published 2023).
Where “and” joins values, the source holds several entries; their conditions need not be identical. Equal entries are not always repeated.

Tested on: patients with HCC
Assay: Tumor response / efficacy in patients with HCC (RECIST 1.1/modified RECIST), trial NCT02834780
Assay type: in vivo, human
Settings: for Clinical Benefit Rate (CBR)(CR+PR+Durable SD): durable SD = stable disease ≥ 17 weeks; for clinical benefit rate / confirmed ORR: 55 HCC patients with ≥ 2 prior lines of therapy; for clinical benefit rate (complete response + partial response + durable stable disease) / confirmed overall response rate (ORR): 90 patients with HCC; for median OS / median PFS: HCC patients with ≥ 2 prior lines of therapy; for median overall survival (OS) / median progression-free survival (PFS): all HCC patients
Source text: A description of the first in human clinical trial for H3B-6527 can be found at the ClinicalTrials.gov by searching for trial identifier NCT02834780. In summary, the trial included a study population having the following characteristics: Adult patients ≥18 years old with advanced HCC or ICC; Progression after at least one prior therapy; ECOG score of 0 or 1; Well compensated liver function; FGF19-positive (dose expansion phase only); Excluded if patients have significant active infections [except hepatitis B virus (HBV) and hepatitis C virus (HCV)], gastric or esophageal varices, or previous FGF19-FGFR4 targeted therapy.
Drug Administration and Dosage for Dose Escalation: H3B-6527 was administered orally QD or BID on a 21-day cycle. Dose escalation followed a standard 3+3 cohort design with the dose cohorts of 300, 600, 1000, and 1400 mg QD fasting or 500 and 700 mg BID fed. Patients in dose escalation phase were treated regardless of FGF19 status. Response determined by RECIST 1.1/modified RECIST every 6 weeks

[1] = Expansion 1000 mg QD Fasted (N=10)

C=CC(=O)Nc1cc(N2CCN(CC)CC2)ccc1Nc1cc(N(C)C(=O)Nc2c(Cl)c(OC)cc(OC)c2Cl)ncn1 [H3B-6527, N-(2-((6-(3-(2,6-dichloro-3,5-dimethoxyphenyl)-1-methylureido)pyrimidin-4-yl)amino)-5-(4-ethylpiperazin-1-yl)phenyl)acrylamide]
Best Overall Response: Complete Response (CR) (300 mg QD Fasted (N=3)): 0 (0.0) n (%)
Best Overall Response: Not Evaluable (300 mg QD Fasted (N=3)): 0 (0.0) n (%)
Best Overall Response: Partial Response (PR) (300 mg QD Fasted (N=3)): 0 (0.0) n (%)
Best Overall Response: Progressive Disease (PD) (300 mg QD Fasted (N=3)): 0 (0.0) n (%)
Best Overall Response: Unknown (300 mg QD Fasted (N=3)): 0 (0.0) n (%)
Objective Response Rate (CR+PR) (300 mg QD Fasted (N=3)): 0 (0.0) n (%)
Clinical Benefit Rate (CBR)(CR+PR+Durable SD) (300 mg QD Fasted (N=3)): 1 (33.3) n (%)
Best Overall Response: Complete Response (CR) (600 mg QD Fasted (N=3)): 0 (0.0) n (%)
Best Overall Response: Not Evaluable (600 mg QD Fasted (N=3)): 0 (0.0) n (%)
Best Overall Response: Partial Response (PR) (600 mg QD Fasted (N=3)): 0 (0.0) n (%)
Best Overall Response: Progressive Disease (PD) (600 mg QD Fasted (N=3)): 1 (33.3) n (%)
Best Overall Response: Unknown (600 mg QD Fasted (N=3)): 0 (0.0) n (%)
Objective Response Rate (CR+PR) (600 mg QD Fasted (N=3)): 0 (0.0) n (%)
Clinical Benefit Rate (CBR)(CR+PR+Durable SD) (600 mg QD Fasted (N=3)): 2 (66.7) n (%)
Best Overall Response: Complete Response (CR) (1000 mg QD Fasted (N=7)): 0 (0.0) n (%)
Best Overall Response: Not Evaluable (1000 mg QD Fasted (N=7)): 0 (0.0) n (%)
Best Overall Response: Partial Response (PR) (1000 mg QD Fasted (N=7)): 1 (14.3) n (%)
Best Overall Response: Progressive Disease (PD) (1000 mg QD Fasted (N=7)): 0 (0.0) n (%)
Best Overall Response: Unknown (1000 mg QD Fasted (N=7)): 0 (0.0) n (%)
Objective Response Rate (CR+PR) (1000 mg QD Fasted (N=7)): 1 (14.3) n (%)
Clinical Benefit Rate (CBR)(CR+PR+Durable SD) (1000 mg QD Fasted (N=7)): 5 (71.4) n (%)
Best Overall Response: Complete Response (CR) (1400 mg QD Fasted (N=4)): 0 (0.0) n (%)
Best Overall Response: Not Evaluable (1400 mg QD Fasted (N=4)): 0 (0.0) n (%)
Best Overall Response: Partial Response (PR) (1400 mg QD Fasted (N=4)): 1 (25.0) n (%)
Best Overall Response: Progressive Disease (PD) (1400 mg QD Fasted (N=4)): 0 (0.0) n (%)
Best Overall Response: Unknown (1400 mg QD Fasted (N=4)): 0 (0.0) n (%)
Objective Response Rate (CR+PR) (1400 mg QD Fasted (N=4)): 1 (25.0) n (%)
Clinical Benefit Rate (CBR)(CR+PR+Durable SD) (1400 mg QD Fasted (N=4)): 3 (75.0) n (%)
clinical benefit rate (BID group): 25.8%
confirmed ORR (BID group): 0%
clinical benefit rate (complete response + partial response + durable stable disease) (BID group): 38%
confirmed overall response rate (ORR) (BID group): 0%
median OS (BID group): 7.3 months
median PFS (BID group): 2.8 months
median overall survival (OS) (BID group): 8.0 months
median progression-free survival (PFS) (BID group): 3.4 months
Best Overall Response: Complete Response (CR) [1]: 0 (0.0) n (%)
Best Overall Response: Not Evaluable [1]: 0 (0.0) n (%)
Best Overall Response: Partial Response (PR) [1]: 0 (0.0) n (%)
Best Overall Response: Progressive Disease (PD) [1]: 1 (10.0) n (%)
Best Overall Response: Unknown [1]: 3 (30.0) n (%)
Objective Response Rate (CR+PR) [1]: 0 (0.0) n (%)
Clinical Benefit Rate (CBR)(CR+PR+Durable SD) [1]: 2 (20.0) n (%)
clinical benefit rate (QD group): 45.8%
confirmed ORR (QD group): 12.5%
clinical benefit rate (complete response + partial response + durable stable disease) (QD group): 52%
confirmed overall response rate (ORR) (QD group): 8.3%
median OS (QD group): 10.6 months
median PFS (QD group): 4.1 months
median overall survival (OS) (QD group): 11.1 months
median progression-free survival (PFS) (QD group): 4.1 months
Best Overall Response: Complete Response (CR) (Total (N=27), QD fasted): 0 (0.0) n (%)
Best Overall Response: Not Evaluable (Total (N=27), QD fasted): 0 (0.0) n (%)
Best Overall Response: Partial Response (PR) (Total (N=27), QD fasted): 2 (7.4%) n (%) and 2 (7.4) n (%)
Best Overall Response: Progressive Disease (PD) (Total (N=27), QD fasted): 2 (7.4) n (%)
Best Overall Response: Unknown (Total (N=27), QD fasted): 3 (11.1) n (%)
Objective Response Rate (CR+PR) (Total (N=27), QD fasted): 2 (7.4) n (%)
Clinical Benefit Rate (CBR)(CR+PR+Durable SD) (Total (N=27), QD fasted): 13 (48.1) n (%)
